Results on five molecules are retold here after PubChem BioAssay AID248 (DTP/NCI, 2004).

Where “and” joins values, the source holds several entries; their conditions need not be identical. Equal values may be shown once. Toxic doses and inconclusive results are not listed.

The subject of this assay is L1210 leukemia ip in BDF1 mice, survival T/C. Description: NCI In Vivo Anticancer Drug Screen. Data for tumor model L1210 Leukemia (intraperitoneal) in B6D2F1 (BDF1) mice. The note with it: higher = longer survival. Put shortly: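 Survival endpoint. Drug-treated group vs vehicle group, expressed as T divided by C. Tumor passaged by transplantation.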
Where [1] appears, read: endpoint: mean survival time, dose: 100.0 mg/kg/injection, schedule: Q01DX009 (ip), vehicle: saline with Tween-80.
Where [2] appears, read: endpoint: mean survival time, dose: 200.0 mg/kg/injection, schedule: Q01DX009 (ip), vehicle: saline with Tween-80.
[3] abbreviates: endpoint: mean survival time, dose: 400.0 mg/kg/injection, schedule: Q01DX009 (ip), vehicle: saline with Tween-80.

As to `Oc1cc(CN(CCCl)CCCl)c(O)cc1CN(CCCl)CCCl`, the T/C reads like this: (endpoint: mean survival time, dose: 0.06 mg/kg/injection, schedule: Q#A X Z (ip), vehicle: saline) 118 % of control; (endpoint: mean survival time, dose: 0.13 mg/kg/injection, schedule: Q01DX Z (ip), vehicle: saline) 120 % of control; (endpoint: mean survival time, dose: 0.25 mg/kg/injection, schedule: Q01DX001 (ip), vehicle: saline) 111 % of control; (endpoint: mean survival time, dose: 0.25 mg/kg/injection, schedule: Q01DX Z (ip), vehicle: saline) 122 % of control; (endpoint: mean survival time, dose: 0.25 mg/kg/injection, schedule: Q07DX003 (ip), vehicle: saline) 158 % of control; (endpoint: mean survival time, dose: 0.5 mg/kg/injection, schedule: Q01DX001 (ip), vehicle: saline) 104 % of control. Besides, the T/C runs as follows: (endpoint: mean survival time, dose: 0.5 mg/kg/injection, schedule: Q01DX010 (ip), vehicle: saline) 121 % of control; (endpoint: mean survival time, dose: 0.5 mg/kg/injection, schedule: Q07DX003 (ip), vehicle: saline) 104 % of control; (endpoint: mean survival time, dose: 0.5 mg/kg/injection, schedule: Q#A X Z (ip), vehicle: saline) 122 % of control; (endpoint: mean survival time, dose: 1.0 mg/kg/injection, schedule: Q01DX001 (ip), vehicle: saline) 107 % of control and 113 % of control; (endpoint: mean survival time, dose: 1.25 mg/kg/injection, schedule: Q01DX009 (ip), vehicle: saline) 107 % of control and 118 % of control; (endpoint: mean survival time, dose: 2.0 mg/kg/injection, schedule: Q01DX001 (ip), vehicle: saline) 111 % of control and 120 % of control. In addition, the T/C reads like this: (endpoint: mean survival time, dose: 2.0 mg/kg/injection, schedule: Q01DX006 (iv), vehicle: saline) 114 % of control; (endpoint: mean survival time, dose: 2.0 mg/kg/injection, schedule: Q01DX Z (im), vehicle: saline) 108 % of control; (endpoint: mean survival time, dose: 2.0 mg/kg/injection, schedule: Q01DX Z (sc), vehicle: saline) 108 % of control; (endpoint: mean survival time, dose: 2.5 mg/kg/injection, schedule: Q01DX009 (ip), vehicle: saline) 119 % of control; (endpoint: mean survival time, dose: 3.0 mg/kg/injection, schedule: Q03DX006 (ip), vehicle: saline) 106 % of control; (endpoint: mean survival time, dose: 4.0 mg/kg/injection, schedule: Q01DX001 (ip), vehicle: saline) 108 % of control. Further, the T/C by setting is: (endpoint: mean survival time, dose: 4.0 mg/kg/injection, schedule: Q01DX006 (iv), vehicle: saline) 117 % of control; (endpoint: mean survival time, dose: 4.0 mg/kg/injection, schedule: Q01DX010 (ip), vehicle: saline) 119 % of control; (endpoint: mean survival time, dose: 4.0 mg/kg/injection, schedule: Q01DX Z (im), vehicle: saline) 120 % of control; (endpoint: mean survival time, dose: 4.0 mg/kg/injection, schedule: Q01DX Z (sc), vehicle: saline) 114 % of control; (endpoint: mean survival time, dose: 5.0 mg/kg/injection, schedule: Q01DX009 (ip), vehicle: saline) 122 % of control; (endpoint: mean survival time, dose: 5.0 mg/kg/injection, schedule: Q01DX010 (ip), vehicle: saline) 117 % of control. The T/C by setting is: (endpoint: mean survival time, dose: 8.0 mg/kg/injection, schedule: Q01DX001 (ip), vehicle: saline) 104 % of control and 113 % of control; (endpoint: mean survival time, dose: 8.0 mg/kg/injection, schedule: Q01DX006 (iv), vehicle: saline) 123 % of control; (endpoint: mean survival time, dose: 8.0 mg/kg/injection, schedule: Q01DX Z (im), vehicle: saline) 108 % of control; (endpoint: mean survival time, dose: 8.0 mg/kg/injection, schedule: Q01DX Z (oral), vehicle: saline) 117 % of control; (endpoint: mean survival time, dose: 8.0 mg/kg/injection, schedule: Q01DX Z (sc), vehicle: saline) 111 % of control; (endpoint: mean survival time, dose: 8.0 mg/kg/injection, schedule: Q#A X Z (ip), vehicle: saline) 102 % of control. The T/C (endpoint: mean survival time, dose: 10.0 mg/kg/injection, schedule: Q01DX009 (ip), vehicle: saline) was 93 % of control and 96 % of control; the T/C (endpoint: mean survival time, dose: 10.0 mg/kg/injection, schedule: Q01DX010 (ip), vehicle: saline) was 89 % of control; the T/C (endpoint: mean survival time, dose: 16.0 mg/kg/injection, schedule: Q01DX001 (ip), vehicle: saline) was 122 % of control and 124 % of control; the T/C (endpoint: mean survival time, dose: 16.0 mg/kg/injection, schedule: Q01DX006 (iv), vehicle: saline) is 123 % of control; the T/C (endpoint: mean survival time, dose: 16.0 mg/kg/injection, schedule: Q01DX Z (im), vehicle: saline) was 117 % of control; the T/C (endpoint: mean survival time, dose: 16.0 mg/kg/injection, schedule: Q01DX Z (ip), vehicle: saline) is 103 % of control. Moreover, the T/C (endpoint: mean survival time, dose: 16.0 mg/kg/injection, schedule: Q01DX Z (oral), vehicle: saline) was 109 % of control; the T/C (endpoint: mean survival time, dose: 16.0 mg/kg/injection, schedule: Q01DX Z (sc), vehicle: saline) was 120 % of control; the T/C (endpoint: mean survival time, dose: 16.0 mg/kg/injection, schedule: Q07DX003 (ip), vehicle: saline) was 114 % of control; the T/C (endpoint: mean survival time, dose: 24.0 mg/kg/injection, schedule: Q03DX006 (ip), vehicle: saline) is 124 % of control; the T/C (endpoint: mean survival time, dose: 32.0 mg/kg/injection, schedule: Q01DX001 (ip), vehicle: saline) was 120 % of control; the T/C (endpoint: mean survival time, dose: 32.0 mg/kg/injection, schedule: Q01DX Z (im), vehicle: saline) is 93 % of control. The T/C runs as follows: (endpoint: mean survival time, dose: 32.0 mg/kg/injection, schedule: Q01DX Z (oral), vehicle: saline) 111 % of control; (endpoint: mean survival time, dose: 32.0 mg/kg/injection, schedule: Q01DX Z (sc), vehicle: saline) 110 % of control; (endpoint: mean survival time, dose: 48.0 mg/kg/injection, schedule: Q03DX006 (ip), vehicle: saline) 104 % of control; (endpoint: mean survival time, dose: 64.0 mg/kg/injection, schedule: Q01DX001 (ip), vehicle: saline) 108 % of control and 110 % of control; (endpoint: mean survival time, dose: 64.0 mg/kg/injection, schedule: Q01DX Z (im), vehicle: saline) 95 % of control; (endpoint: mean survival time, dose: 64.0 mg/kg/injection, schedule: Q01DX Z (oral), vehicle: saline) 105 % of control. The T/C is 87 % of control (endpoint: mean survival time, dose: 64.0 mg/kg/injection, schedule: Q01DX Z (sc), vehicle: saline); 106 % of control (endpoint: mean survival time, dose: 64.0 mg/kg/injection, schedule: Q07DX003 (ip), vehicle: saline); 108 % of control and 114 % of control (endpoint: mean survival time, dose: 128.0 mg/kg/injection, schedule: Q01DX001 (ip), vehicle: saline); 119 % of control (endpoint: mean survival time, dose: 256.0 mg/kg/injection, schedule: Q01DX001 (ip), vehicle: saline); 104 % of control (endpoint: mean survival time, dose: 16.0 micrograms/kg/injection, schedule: Q03DX003 (ip), vehicle: saline); 98 % of control (endpoint: mean survival time, dose: 32.0 micrograms/kg/injection, schedule: Q03DX003 (ip), vehicle: saline). The T/C by setting is: (endpoint: mean survival time, dose: 37.5 micrograms/kg/injection, schedule: Q07DX002 (ip), vehicle: saline) 102 % of control; (endpoint: mean survival time, dose: 62.5 micrograms/kg/injection, schedule: Q03DX003 (ip), vehicle: saline) 107 % of control; (endpoint: mean survival time, dose: 75.0 micrograms/kg/injection, schedule: Q07DX002 (ip), vehicle: saline) 101 % of control; (endpoint: mean survival time, dose: 125.0 micrograms/kg/injection, schedule: Q03DX003 (ip), vehicle: saline) 102 % of control; (endpoint: mean survival time, dose: 150.0 micrograms/kg/injection, schedule: Q07DX002 (ip), vehicle: saline) 104 % of control; (endpoint: mean survival time, dose: 300.0 micrograms/kg/injection, schedule: Q07DX002 (ip), vehicle: saline) 102 % of control. Further, the T/C (endpoint: median survival time, dose: 1.25 mg/kg/injection, schedule: Q01DX009 (ip), vehicle: saline) is 157 % of control; the T/C (endpoint: median survival time, dose: 5.0 mg/kg/injection, schedule: Q01DX009 (ip), vehicle: saline) was 122 % of control; the T/C (endpoint: median survival time, dose: 10.0 mg/kg/injection, schedule: Q01DX009 (ip), vehicle: saline) is 105 % of control and 114 % of control.
Turning to `CCCCOC(=O)CCl`, the T/C (endpoint: mean survival time, dose: 100.0 mg/kg/injection, schedule: Q04DX002 (ip), vehicle: saline with Tween-80) was 100 % of control and the T/C (endpoint: mean survival time, dose: 200.0 mg/kg/injection, schedule: Q04DX002 (ip), vehicle: saline with Tween-80) was 107 % of control.
On to `COC(=O)c1cc(NC(=O)Nc2cccc(C(F)(F)F)c2)cc(C(=O)OC)c1`, for which the T/C is 100 % of control under setting [1], 92 % of control under setting [2] and 96 % of control under setting [3].
For `COC1OC(CI)C(OC(C)=O)C(OC(C)=O)C1OS(C)(=O)=O` (configuration not stated), the T/C was 97 % of control (endpoint: mean survival time, dose: 100.0 mg/kg/injection, schedule: Q04DX002 (ip), vehicle: Klucel (hydroxypropylcellulose) (HPC)); 106 % of control (endpoint: mean survival time, dose: 200.0 mg/kg/injection, schedule: Q04DX002 (ip), vehicle: Klucel (hydroxypropylcellulose) (HPC)); 91 % of control (endpoint: mean survival time, dose: 400.0 mg/kg/injection, schedule: Q04DX002 (ip), vehicle: Klucel (hydroxypropylcellulose) (HPC)).
On to `CC1(C)c2ccccc2Nc2ccccc21`, for which the T/C reads like this: under setting [1], 86 % of control; (endpoint: mean survival time, dose: 100.0 mg/kg/injection, schedule: Q04DX003 (ip), vehicle: saline with Tween-80) 97 % of control; under setting [2], 89 % of control; (endpoint: mean survival time, dose: 200.0 mg/kg/injection, schedule: Q04DX003 (ip), vehicle: saline with Tween-80) 101 % of control; under setting [3], 89 % of control; (endpoint: mean survival time, dose: 400.0 mg/kg/injection, schedule: Q04DX003 (ip), vehicle: saline with Tween-80) 98 % of control.
